Counter-ions that a name gives are not always drawn.
Target: T1, acetylcholinesterase (Mus musculus, UniProt P21836)
T1 construct: A mouse brain homogenate was used as an acetylcholinesterase source; from tissue; host or cells: mouse brain homogenate
Assay: biochemical
Format: biochemical
Conditions: not given

T1 sequence (P21836 32-614): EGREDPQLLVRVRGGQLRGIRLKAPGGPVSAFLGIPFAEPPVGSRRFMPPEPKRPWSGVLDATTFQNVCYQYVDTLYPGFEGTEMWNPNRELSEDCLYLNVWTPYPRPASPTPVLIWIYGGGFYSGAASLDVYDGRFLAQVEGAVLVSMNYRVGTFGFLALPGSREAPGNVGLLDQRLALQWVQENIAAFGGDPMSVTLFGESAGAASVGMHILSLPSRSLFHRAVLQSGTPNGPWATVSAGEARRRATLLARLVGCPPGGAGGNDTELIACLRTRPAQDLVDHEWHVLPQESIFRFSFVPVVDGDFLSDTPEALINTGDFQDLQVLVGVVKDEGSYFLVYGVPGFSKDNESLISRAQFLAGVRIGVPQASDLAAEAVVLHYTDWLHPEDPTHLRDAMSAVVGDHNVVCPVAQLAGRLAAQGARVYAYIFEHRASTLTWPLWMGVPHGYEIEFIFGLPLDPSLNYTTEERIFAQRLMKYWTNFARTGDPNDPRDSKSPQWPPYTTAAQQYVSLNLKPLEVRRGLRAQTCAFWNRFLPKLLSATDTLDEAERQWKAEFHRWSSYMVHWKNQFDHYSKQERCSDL

SMILES | IC50 [nM]
O=C1c2cccnc2CN1CCC1CCN(Cc2ccccc2)CC1 [Example 5, 2-[4'-(1'-Benzylpiperidine)ethyl]-2,3-dihydro-1-oxypyrrolo[3,4-b]pyridine dihydrochloride] | 100
COc1cc2c(cc1OC)C(=O)N(CCC1CCN(Cc3ccccc3)CC1)C2 [Example 6, 2-[4'-Benzylpiperidine)ethyl]-2,3-dihydro-5,6-dimethoxyoxypyrrolo[3,4-]benzene hydrochloride] | 17
CN1CC(=O)N(CCC2CCN(Cc3ccccc3)CC2)c2ccccc2C1 [Example 9, 1-[4'-(1'-Benzylpiperidine)ethyl-1,2,3,4-tetrahydro-4-methyl-5H-[1,4]-benzodiazepin-2-one dihydrochloride] | 51
O=C1CCCc2ccccc2N1CCC1CCN(Cc2ccccc2)CC1 [Example 10, 1-[4'-(1'-Benzylpiperidine)ethyl]-1,2,3,4-tetrahydro-5H-1-benzazepin-2-one hydrochloride] | 9
CN1c2ccccc2C(=O)N(CCC2CCN(Cc3ccccc3)CC2)c2ccccc21 [Example 12, 10-[4'-(1'-Benzylpiperidine)ethyl]-10,11-dihydro-5-methyl-5H-dibenzo[b,e][1,4]diazepin-11-one hydrochloride] | 40
O=C(NCCC1CCN(Cc2ccc(O)cc2)CC1)c1cnc2ccccc2n1 [Example 14, N-[4'-(1'-(p-Hydroxybenzyl)piperidine)ethyl]-2-quinoxalinecarboxylic amide hydrochloride] | 38
COc1cc(OC)cc(N(CCC2CCN(Cc3ccccc3)CC2)C(=O)C=Cc2ccc(F)cc2)c1 [Example 18, N-(3'5'-Dimethoxyphenyl)-N-[4'-(1'--benzylpiperidyl)-ethyl]-4-fluorocinnamamide hydrichloride] | 680
O=C(NCC1CCN(Cc2ccccc2)C1)c1ccccc1 (stereo not drawn) [Example 21, N-[3'-(1'-Benzylpyrrolidine)methyl]benzamide hydrochloride] | 50000
O=C(NCCC1CCN(Cc2ccccc2)CC1)c1ccoc1 [Example 24, N-[4'-(1'-Benzylpiperidine)ethyl]-3-furancarboxylic amide hydrochloride] | 1100
O=C(CCCC1CCN(Cc2ccccc2)CC1)c1ccncc1 [Example 45] | 360
O=C(CCC1CCN(Cc2ccccc2)CC1)Nc1ccncc1 [Example 48] | 19
COc1ccc2c(c1)CCCC(=O)N2CCC1CCN(Cc2ccccc2)CC1 [Example 62] | 7.5
COc1cccc2c1CCCC(=O)N2CCC1CCN(Cc2ccccc2)CC1 [Example 65] | 1.6
COc1cc2c(cc1OC)C(=O)N(C)C(CCC1CCN(Cc3ccccc3)CC1)C2 (stereo not drawn) [Example 67] | 100
CN1CC(=O)N(CCC2CCN(Cc3ccccc3)CC2)c2ccccc2C1=O [Example 70] | 280
CCOC(=O)c1nccnc1C(=O)NCCC1CCN(Cc2ccccc2)CC1 [Example 72] | 20
O=C(c1cnccn1)N(CCC1CCN(Cc2ccccc2)CC1)c1ccccc1 [Example 95] | 85
CC(=O)N(CCC1CCN(Cc2ccccc2)CC1)c1ccncc1 [Example 101] | 110
CN(CCC1CCN(Cc2ccccc2)CC1)C(=O)c1ccco1 [Example 120] | 190
O=C(NCCC1CCN(Cc2ccco2)CC1)c1ccccc1 [Example 124] | 2800
O=C1c2ccccc2Oc2ccccc2N1CCC1CCN(Cc2ccccc2)CC1 [Example 176] | 4
CCOC(=O)N1CCC(CC2Cc3cc(OC)c(OC)cc3C2=O)CC1 (stereo not drawn) [Example 182, 4-[(5,6-Dimethoxy-1-indanon)-2-yl]methyl-1-ethoxycarbonylpiperidine] | 800
CCOC(=O)N1CCC(CC2=Cc3cc(OC)c(OC)cc3C2=O)CC1 [Example 183, 4-[(5,6-Dimethoxy-1-indenon)-2-yl]methyl-1-ethoxycarbonylpiperidine] | 5300
O=C1C(=CC2CCN(Cc3ccccc3)CC2)C(=O)c2ccccc21 [Example 184, 1-Benzyl-4-[(1,3-indanedion)-2-ylidenyl]methylpiperidine] | > 5000
COc1cc2c(cc1OC)CC(CC1CCN(Cc3ccccc3)CC1)=C2 [Example 185, 1-Benzyl-4-[(5,6-dimethoxyinden)-2-yl]methylpiperidine hydrochloride] | 0.82
COc1cc2c(cc1OC)C(=O)C(=CCCC1CCN(Cc3ccccc3)CC1)C2 [Example 186, 1-Benzyl-4-[3-[(5,6-dimethoxy-1-indanon)-2-ylidenyl]]propylpiperidine hydrochloride] | 1.5
COc1cc2c(cc1OC)C(=O)C(CCCC1CCN(Cc3ccccc3)CC1)C2 (stereo not drawn) [Example 187, 1-Benzyl-4-[3-[(5,6-dimethoxy-1-indanon)-2-yl]]propylpiperidine hydrochloride] | 4400
O=C1c2cc(F)ccc2CC1CC1CCN(Cc2ccccc2)CC1 (stereo not drawn) [Example 193] | 200
Cc1ccc2c(c1)C(=O)C(CC1CCN(Cc3ccccc3)CC1)C2 (stereo not drawn) [Example 194] | 69

Same assay, conditions: in vitro, mouse brain homogenate; Table 10; read-out: Inhibitory activity on AChE IC50

SMILES | IC50 [nM]
COc1cc2c(cc1OC)C(=O)C(CC1CCNCC1)C2 (stereo not drawn) [Example 179, 4-[(5,6-Dimethoxy-1-indanon)-2-yl]methylpiperidine hydrochloride] | 5400
COc1cc2c(c(OC)c1OC)C(=O)C(CC1CCN(Cc3ccccc3)CC1)C2 (stereo not drawn) [Example 192] | 13

Same assay, conditions: read-out: AChE inhibitory activity IC50

SMILES | IC50 [nM]
O=C1Nc2ccccc2CN1CCC1CCN(Cc2ccccc2)CC1 [Example 8] | 13
O=C1c2ccccc2CCc2ccccc2N1CCC1CCN(Cc2ccccc2)CC1 [Example 11, N-[4-(1'-Benzylpiperidyl)ethyl]-5,6,11,12-tetrahydrodibenzo[b,f]azocin-6-one hydrochloride] | 68
CC(=O)N(CCC1CCN(Cc2ccccc2)CC1)c1ccccc1 [Example 17, N-[4'-(1'-Benzylpiperidyl)ethyl]acetanilide] | 52
O=C(CCC1CCN(Cc2ccccc2)CC1)Nc1ccccc1 [Example 20, 4-(1-Benzylpiperidine)propanailide hydrochloride] | 540
COc1ccc(C(=O)CCCC2CCN(Cc3ccccc3)CC2)cc1 [Example 23, 4-[4'-N-Benzyl)piperidyl]-p-methoxybutyrophenone hydrochloride] | 72
CN(CCC1CCN(CC2CCCCC2)CC1)C(=O)c1ccccc1 [Example 27, N-[4'-(1'-Cyclohexylmethylpiperidyl)ethyl]-N-methylbenzamide hydrochloride] | 410
COc1cc2c(c(OC)c1)C(=O)C(CC1CCN(Cc3ccccc3)CC1)C2 (stereo not drawn) [Example 31] | 25
O=C1c2ccccc2NCN1CCC1CCN(Cc2ccccc2)CC1 [Example 52] | 800
O=C1c2ccccc2CCN1CCC1CCN(Cc2ccccc2)CC1 [Example 54] | 1000
O=C1Cc2ccccc2CN1CCC1CCN(Cc2ccccc2)CC1 [Example 56] | 17
O=C(c1ccc(F)cc1)N(CCC1CCN(Cc2ccccc2)CC1)c1ccccc1 [Example 89] | 18

Same assay, conditions: read-out: Inhibitory activity on AChE IC50

SMILES | IC50 [nM]
COc1cc2c(cc1OC)C(=O)C(CC1CCN(Cc3cccc(F)c3)CC1)C2 (stereo not drawn) [Example 180, 1-(3-Fluorobenzyl)-4-[(5,6-dimethoxy-1-indanon)-2-yl]methylpiperidine hydrochloride] | 1
COc1ccc2c(c1)C(=O)C(CC1CCN(Cc3ccccc3)CC1)C2 (stereo not drawn) [Example 188] | 81
COc1cccc2c1CC(CC1CCN(Cc3ccccc3)CC1)C2=O (stereo not drawn) [Example 189] | 12
